Where two headings read alike, the source gives them in different places. Each block holds one compound with its values, some of them ahead of it. Where a SMILES comes first, the peptide text is derived from it. Where no end group is shown, it is not given here. [ ]: non-standard residue; d: D form. βAla = NCCC(=O)O
What was measured:
[1] = tested on: Mouse hybridoma CAU 96; test: Batch T-flask culture of hybridoma with oligopeptide supplements (Example 2); assay type: cell-based; conditions: for growth stimulating effect on the hybridoma cell line (in words): Tables 3 to 7
Excerpt: Cells: Mouse hybridoma CAU 96 producing monoclonal lgG2a
Starting viable cell density is 310000 (3.1*10^5) cells per ml.

[2] = tested on: Mouse hybridoma CAU 96; test: Amino acid analysis of the culture medium during cultivation of hybridoma cells with tetrapeptide
Method: (§1) Cells: Mouse hybridoma CAU 96 producing monoclonal lgG2a antibody.
(§2) Medium: DMEM/F-12/RPMI 1640 (2:1:1) supplemented with Basal Medium Eagle (BME) amino acids, 2.0 mM glutamine, 15 mM HEPES (N-2-Hydroxyethylpiperazine-N′-2-ethanesulfonic acid), 2.0 g/l sodium bicarbonate and 0.4 mM ferric citrate.
(§3) Culture mode: 25 cm^3 T-flasks (Nunc) culture volume 6.0 ml, placed at 37° C. in an incubator with 5% CO^2; starting viable cell density is 3.1×10^5 cells per ml.
(§4) Preparation of samples of amino acid analysis: Cells are removed by low-speed centrifugation and macromolecular components are removed by ultrafiltration.

[3] = tested on: Mouse hybridoma CAU 96
Method: as §1, §2, §3, §4

[4] = tested on: Mouse hybridoma CAU 96; remark: listed apart in the source
Method: Medium: DMEM/F-12/RPMI 1640 (2:1:1) supplemented with BME amino acids, MEM non essential amino acids, 2.0 mM glutamine, 15 mM HEPES, 2.0 g/L sodium bicarbonate and 0.4 mM ferric citrate.
Culture mode: 25 cm^2 T-flasks (Supplier: Nunc), culture volume 6.0 ml, placed at 37° C. in an incubator with 5% CO2; starting viable cell density is 3.1×10^5 cells per ml.

[5] = Table 5, Day 6, supplement 0.2% w/v
[6] = Table 6, Day 6, supplement 0.1% w/v
[7] = Table 6, Day 6, supplement 0.2% w/v
[8] = Table 5, Day 6, supplement 0.05% w/v
[9] = Table 5, Day 6, supplement 0.1% w/v
[10] = Table 5, Day 6, supplement 0.3% w/v
[11] = Table 3, Day 7, supplement 0.2% w/v
[12] = Table 4, Day 6, supplement 0.2% w/v
[13] = Table 7, Day 6, supplement 0.05% w/v
[14] = Table 7, Day 6, supplement 0.1% w/v
[15] = Table 7, Day 6, supplement 0.2% w/v
[16] = Table 4, Day 6, supplement 0.1% w/v

Compound: NCCC(=O)O [β-alanine, reference compound]
- Viable cell number % of control [1]: 106 % of control
- Monoclonal antibody [1, 5]: 105 mg/L
- Viability [1, 5]: 60%
- Viable cell number [1, 5]: 1210 cells/μL
- growth stimulating effect on the hybridoma cell line (in words) [1]: insignificant

Compound: Gly-Arg-Gly
- Monoclonal antibody [1, 6]: 106 mg/L
- Viability [1, 6]: 65%
- Viable cell number [1, 6]: 1360 cells/μL
- Monoclonal antibody [1, 7]: 121 mg/L
- Viability [1, 7]: 66%
- Viable cell number [1, 7]: 1270 cells/μL

Compound: Ser-Ser-Ser [Triserine]
- Monoclonal antibody [1, 8]: 109 mg/L
- Viability [1, 8]: 61%
- Viable cell number [1, 8]: 1200 cells/μL
- Monoclonal antibody [1, 9]: 112 mg/L
- Viability [1, 9]: 65%
- Viable cell number [1, 9]: 1340 cells/μL
- Monoclonal antibody [1, 5]: 126 mg/L
- Viability [1, 5]: 70%
- Viable cell number [1, 5]: 1550 cells/μL
- Monoclonal antibody [1, 10]: 142 mg/L
- Viability [1, 10]: 78%
- Viable cell number [1, 10]: 1610 cells/μL

Compound: Gly-Asp-Gly
- Monoclonal antibody [1, 6]: 98 mg/L
- Viability [1, 6]: 64%
- Viable cell number [1, 6]: 1340 cells/μL
- Monoclonal antibody [1, 7]: 92 mg/L
- Viability [1, 7]: 70%
- Viable cell number [1, 7]: 1420 cells/μL

Compound: Diglycine
- Viable cell number % of control [1]: 114 % of control
- Monoclonal antibody [1, 11]: 165 mg/L
- Viability [1, 11]: 70%
- Viable cell number [1, 11]: 1210 cells/μL

Compound: C[C@H](N)C(=O)O [Alanine, reference compound]
- Viable cell number % of control [1]: 94 % of control
- Monoclonal antibody [1, 12]: 110 mg/L
- Viability [1, 12]: 60%
- Viable cell number [1, 12]: 1030 cells/μL
- growth stimulating effect on the hybridoma cell line (in words) [1]: insignificant

Compound: NCC(=O)NCC(=O)NCC(=O)O [Triglycine, Gly-Gly-Gly] (H-Gly-Gly-Gly-OH)
- Viability ([1]; 0.1 % w/v): 78%
- Monoclonal antibody [1, 11]: 160 mg/L
- Viable cell number [1, 11]: 1660 cells/μL
- Monoclonal antibody [1, 6]: 98 mg/L
- Viable cell number [1, 6]: 1350 cells/μL
- Monoclonal antibody [1, 7]: 89 mg/L
- Viable cell number [1, 7]: 1300 cells/μL

Compound: Gly-βAla-Gly-Gly (G[βAla]GG)
- Monoclonal antibody [1, 13]: 121 mg/L
- Viability [1, 13]: 68%
- Viable cell number [1, 13]: 1100 cells/μL
- Monoclonal antibody [1, 14]: 129 mg/L
- Viability [1, 14]: 65%
- Viable cell number [1, 14]: 1150 cells/μL
- Monoclonal antibody [1, 15]: 150 mg/L
- Viability [1, 15]: 72%
- Viable cell number [1, 15]: 1270 cells/μL

Compound: Gly-His-Gly
- Monoclonal antibody [1, 6]: 121 mg/L
- Viability [1, 6]: 65%
- Viable cell number [1, 6]: 1180 cells/μL
- Monoclonal antibody [1, 7]: 144 mg/L
- Viability [1, 7]: 66%
- Viable cell number [1, 7]: 900 cells/μL

Compound: Thr-Thr-Thr [Trithreonine]
- Monoclonal antibody [1, 8]: 122 mg/L
- Viability [1, 8]: 67%
- Viable cell number [1, 8]: 1310 cells/μL
- Monoclonal antibody [1, 9]: 130 mg/L
- Viability [1, 9]: 70%
- Viable cell number [1, 9]: 1370 cells/μL
- Monoclonal antibody [1, 5]: 152 mg/L
- Viability [1, 5]: 73%
- Viable cell number [1, 5]: 1450 cells/μL

Compound: Gly-Gly-Gly-Gly-Gly-Gly [Hexaglycine]
- Viable cell number % of control [1]: 183 % of control
- Monoclonal antibody [1, 11]: 160 mg/L
- Viability [1, 11]: 79%
- Viable cell number [1, 11]: 1940 cells/μL

Compound: Ala-Ala-Ala [Trialanine]
- Monoclonal antibody [1, 16]: 130 mg/L
- Viability [1, 16]: 69%
- Viable cell number [1, 16]: 1390 cells/μL
- Monoclonal antibody [1, 12]: 132 mg/L
- Viability [1, 12]: 70%
- Viable cell number [1, 12]: 1420 cells/μL

Compound: Gly-Gly-His-Gly (GGHG)
- Monoclonal antibody [1, 14]: 93 mg/L
- Viability [1, 14]: 77%
- Viable cell number [1, 14]: 1360 cells/μL
- Monoclonal antibody [1, 15]: 84 mg/L
- Viability [1, 15]: 71%
- Viable cell number [1, 15]: 1180 cells/μL

- Amino acid concentration, Day 0 ([2]; Table 2, culture medium with tetraalanine, day 0): 1.84
- Amino acid concentration, Day 4 ([2]; Table 2, culture medium with tetraalanine, day 4): 1.28
- Amino acid concentration, Difference ([2]; Table 2, day 4 minus day 0): −0.56
Compound: C[C@H](N)C(=O)N[C@@H](C)C(=O)N[C@@H](C)C(=O)N[C@@H](C)C(=O)O [Tetraalanine, Ala-Ala-Ala-Ala] (H-AAAA-OH; N-terminus and C-terminus assumed)
- Viability ([1]; 0.1 % w/v): 66%
- Viability ([1]; 0.2 % w/v): 72%

Compound: C[C@@H](O)[C@H](N)C(=O)O [Threonine, reference compound]
- Viable cell number % of control [1]: 97 % of control
- Monoclonal antibody [1, 5]: 114 mg/L
- Viability [1, 5]: 59%
- Viable cell number [1, 5]: 1100 cells/μL

Compound: Gly-Lys-Gly
- Monoclonal antibody [1, 6]: 128 mg/L
- Viability [1, 6]: 67%
- Viable cell number [1, 6]: 1250 cells/μL
- Monoclonal antibody [1, 7]: 154 mg/L
- Viability [1, 7]: 62%
- Viable cell number [1, 7]: 1100 cells/μL

Compound: NCC(=O)O [Glycine, reference compound]
- Viable cell number % of control [1]: 102 % of control
- Monoclonal antibody [1, 11]: 160 mg/L
- Viability [1, 11]: 60%
- Viable cell number [1, 11]: 1080 cells/μL
- growth stimulating effect on the hybridoma cell line (in words) [1]: does not significantly stimulate cell growth

- Amino acid concentration, Day 0 [3]: 7.14 mM
- Amino acid concentration, Day 4 [3]: 6.55 mM
Compound: NCC(=O)NCC(=O)NCC(=O)NCC(=O)O [Tetraglycine, Gly-Gly-Gly-Gly] (H-GGGG-OH; N-terminus and C-terminus assumed)
- Viable cell number % of control [1]: 176 % of control
- Viability ([1]; 0.2 % w/v): 80%
- Viability ([4]; 0.1 % w/v): 78%
- Viability ([4]; 0.2 % w/v): 77%
- Viability ([4]; 0.3 % (w/v)): 80%

Compound: Gly-Gly-Lys-Ala (GGKA)
- Monoclonal antibody [1, 14]: 118 mg/L
- Viability [1, 14]: 79%
- Viable cell number [1, 14]: 1310 cells/μL
- Monoclonal antibody [1, 15]: 134 mg/L
- Viability [1, 15]: 78%
- Viable cell number [1, 15]: 1290 cells/μL

Compound: Gly-Gly-Glu-Ala (GGEA)
- Monoclonal antibody [1, 14]: 100 mg/L
- Viability [1, 14]: 82%
- Viable cell number [1, 14]: 1350 cells/μL
- Monoclonal antibody [1, 15]: 113 mg/L
- Viability [1, 15]: 77%
- Viable cell number [1, 15]: 1280 cells/μL

Compound: Gly-Gly-Gly-Gly-Gly [Pentaglycine]
- Viable cell number % of control [1]: 190 % of control
- Monoclonal antibody [1, 11]: 165 mg/L
- Viability [1, 11]: 82%
- Viable cell number [1, 11]: 2020 cells/μL

Compound: N[C@@H](CO)C(=O)O [Serine, reference compound]
- Viable cell number % of control [1]: 104 % of control
- Monoclonal antibody [1, 5]: 111 mg/L
- Viability [1, 5]: 63%
- Viable cell number [1, 5]: 1190 cells/μL
- growth stimulating effect on the hybridoma cell line (in words) [1]: insignificant

— patent US7101664B2, “Bioactive oligopeptides” (Polymun Scientific Immunbiologische Forschung GmbH, priority 1999, dated 2006)
